Values quoted from earlier work, collected in US20240164377A1, “LOW VOLATILITY PROMOTING WATER CONDITIONING ADJUVANTS” (Adjuvants Unlimited LLC, priority 2014, published 2024).

| Structure (SMILES) | Volatility compared with another salt (in words) (background statement) | Volatility relative to the diglycolamine salt (reported, see WO 2011/019652 A2) |
| --- | --- | --- |
| COc1c(Cl)ccc(Cl)c1C(=O)O.NCCOCCO [diglycolamine salt of dicamba] | lower volatility than the dimethylamine salt of dicamba |  |
| COc1c(Cl)ccc(Cl)c1C(=O)O [free acid form of dicamba, 3,6-dichloro-2-methoxybenzoic acid] |  | about 100 times |
